Experimental data taken from patent US5066817A, “DC115A compounds produced by streptomyces sp” (Kyowa Hakko Kogyo Co., Ltd., priority 1989, dated 1991).
Converted amounts (≈) assume the structure as drawn.

Tests used:
[1] = tested on: Bacillus subtilis No. 10707; test: Antibacterial activity, agar dilution method (pH 7.0); assay type: cell-based; conditions: read-out: Minimum Inhibitory Concentration
Description: (§1) The minimum inhibitory concentration (MIC) against various bacteria was determined by the agar dilution method (pH 7.0).

Escherichia coli ATCC 26 = test: as above; assay type: cell-based; conditions: ATCC26, read-out: Minimum Inhibitory Concentration
Description: as §1

[2] = tested on: Klebsiella pneumoniae ATCC 10031; test: as above; assay type: cell-based; conditions: ATCC10031, read-out: Minimum Inhibitory Concentration
Description: as §1

[3] = tested on: Salmonella typhi ATCC 9992; test: as above; assay type: cell-based; conditions: Salmonella enterica, pH 7, read-out: Minimum Inhibitory Concentration
Description: as §1

[4] = tested on: Staphylococcus aureus ATCC 6538P; test: as above; assay type: cell-based; conditions: ATCC6538P, read-out: Minimum Inhibitory Concentration
Description: as §1

T24 cells = test: Growth inhibition against T24 cells (Neutral Red staining); assay type: cell-based; conditions: Homo sapiens, T-24, 72 hours
Description: (§2) A T24 cell suspension ([…]) prepared by suspending T24 cells in a medium comprising F10 medium (GIBCO Co., Ltd.), […] fetal calf serum, 100 units/ml penicillin and 100 μg/ml streptomycin (hereinafter referred to as medium A) was put into wells of a 96-well microtiter plate in an amount of 0.1 ml per well. After incubation at 37° C. for 20 hours in a […], 0.05 ml of a sample appropriately diluted with medium A was added to each well. The cells were further cultured at 37° C. for 72 hours in the CO2 -incubator and the culture supernatant was removed. To the residue was added a medium comprising medium A and 0.02% Neutral Red in an amount of 0.1 ml per well, followed by culturing at 37° C. for one hour in the CO2 -incubator, whereby the cells were stained. After the culture supernatant was removed, the residue was washed once with physiological saline.
(§3) Then, the pigment was extracted with 0.001N hydrochloric acid/30% ethanol and absorbance at 550 nm was measured with a microplate reader. By comparing the absorbance of intact cells with those of the cells treated with a test compound at known concentrations, the concentration of the test compound at which the growth of the cells is inhibited by 50% (IC50) was determined.

HeLaS3 cells = test: Growth inhibition against HeLaS3 cells; assay type: cell-based; conditions: Homo sapiens, HeLa S3, 72 hours
Description: as §2, §3
(§4) IC50 was determined in the same manner as in the case of T24 cells except that a suspension of HeLaS3 cells (3×10^4 cells/ml) prepared by suspending HeLaS3 cell medium comprising MEM medium (Nissui Pharmaceutical Co., Ltd.) and 2 mM glutamine was used.

tumor cells = test: Growth inhibition of tumor cells, overall result of (B) and (C); assay type: cell-based; conditions: from the results of (B) and (C)
Description: as §2, §3, §4

Solubility = assay type: physicochemical
[5] = chloroform, dimethylsulfoxide, methanol, ethyl acetate and acetone

CCCC1OC1(C)c1cc(=O)c2c(CC(=O)O)cc3cc4c(c(O)c3c2o1)C(=O)CCC4OC(C)=O (stereo not drawn) [DC115A1]
MIC [1]: 10 µg/mL (≈ 20.2 µM)
MIC (Escherichia coli ATCC 26): > 100 µg/mL
MIC [2]: > 100 µg/mL
MIC [3]: > 100 µg/mL
MIC [4]: 5.2 µg/mL (≈ 10.5 µM)
IC50 (T24 cells): 0.17 µg/mL (≈ 0.344 µM)
IC50 (HeLaS3 cells): 0.22 µg/mL (≈ 0.445 µM)
inhibition of growth of tumor cells (tumor cells): inhibit the growth of tumor cells
Solubility (Solubility; [5]): Soluble
Solubility (Solubility; water and n-hexane): sparingly soluble

CCC1OC1(C)c1cc(=O)c2c(CC(=O)O)cc3cc4c(c(O)c3c2o1)C(=O)CCC4OC(C)=O (stereo not drawn) [DC115A2]
MIC [1]: 10 µg/mL (≈ 20.8 µM)
MIC (Escherichia coli ATCC 26): 83 µg/mL (≈ 173 µM)
MIC [2]: 10 µg/mL (≈ 20.8 µM)
MIC [3]: > 100 µg/mL
MIC [4]: 2.6 µg/mL (≈ 5.41 µM)
IC50 (T24 cells): 0.11 µg/mL (≈ 0.229 µM)
IC50 (HeLaS3 cells): 0.19 µg/mL (≈ 0.395 µM)
inhibition of growth of tumor cells (tumor cells): inhibit the growth of tumor cells
Solubility (Solubility; [5]): Soluble
Solubility (Solubility; water and n-hexane): sparingly soluble

CC=CC1OC1(C)c1cc(=O)c2c(CC(=O)O)cc3cc4c(c(O)c3c2o1)C(=O)CCC4OC(C)=O (stereo not drawn) [DC115A3]
MIC [1]: 1.3 µg/mL (≈ 2.64 µM)
MIC (Escherichia coli ATCC 26): 21 µg/mL (≈ 42.6 µM)
MIC [2]: 5.2 µg/mL (≈ 10.6 µM)
MIC [3]: 83 µg/mL (≈ 169 µM)
MIC [4]: 0.3 µg/mL (≈ 0.609 µM)
IC50 (T24 cells): 0.14 µg/mL (≈ 0.284 µM)
IC50 (HeLaS3 cells): 0.42 µg/mL (≈ 0.853 µM)
inhibition of growth of tumor cells (tumor cells): inhibit the growth of tumor cells
Solubility (Solubility; [5]): Soluble
Solubility (Solubility; water and n-hexane): sparingly soluble
